Assay results taken from patent US5593835A, “Methods and kits for RNA binding compounds” (President and Fellows of Harvard College, priority 1995, dated 1997).

Target: RRE region of HIV RNA
Test: Fluorescence binding and competitive binding to RRE RNA
Conditions: competition, 100 nM RNA, 15 nM fluorescent tobramycin, 20° C., pH 7.4; read-out: Dissociation Constant (KD) RRE RNA
Procedure: In order to quantitatively determine whether fluorescently labelled tobramycin and other antibiotics bind directly to the RRE region and/or to other regions of the HIV RNA, and with what affinity, the RRE and TAR regions of HIV RNA were prepared and used in the method of the invention as target RNAs.
For binding studies, different concentrations of RRE RNA (from 0 to 300 nm) were mixed with a constant concentration (15 nM) PYT in Binding buffer (140 mM NaCl, 1 mM MgCl2, 20 mM HEPES, pH 7.4), 2 ml total volume, for 1-5 min. at 20° C. in a semimicro-cell cuvette. The fluorescence was measured on a Perkin-Elmer Model 512 double beam fluorescence spectrophotometer. The excitation wavelength used was 330 nm. The intensities of fluorescence emission at 390 nm were used to calculate dissociation constants. Generally 8 to 12 points were used for calculation.
In other competitive binding studies, TAR or RRE RNA was added at a constant concentration of 100 nM±5% and PYT at 15 nM. Different concentrations of competitive antibiotic (tobramycin (o-60 μM), gentamicin C (0-100 μM), neomycin B (0-4 μM), or lividomycin A (0-100 μM) or Rev protein (0-6 μM) were mixed with constant concentrations of RNA (100 nM TAR or RRE) and C1PYT (15 nM), in Binding buffer (140 mM NaCl, 5 mM KCl, 1 mM MgCl2, 20 mM HEPES, pH 7.4), 2 ml total volume, for 1-5 min. at 20° C. in a semimicrocell cuvette. The fluorescence was measured on a Perkin-Elmer Model 512 double beam fluorescence spectrophotometer. The excitation wavelength used was 330 nm. The intensities of fluorescence emission at 390 nm were used to calculate dissociation constants. Generally 8 to 12 points were used for calculation.
Wild type and mutant RRE RNAs were transcribed in vitro by T7 RNA polymerase using synthetic oligonucleotide templates, as described by Milligan et al. (Meth. Enzymol. (1989) 180: 51-62).
Competition binding measurements of antibiotics with RNA and PYT were performed at constant concentrations of PYT and RNA by monitoring fluorescence intensity changes as a function of changing concentrations of the antibiotics (a standard fluorescence curve). The KD s for the antibiotics were calculated by the curve fitting of the fluorescence intensity of PYT as a function of antibiotic concentration, using the following equation: […]

NC[C@H]1O[C@H](O[C@H]2[C@H](O)[C@@H](O[C@H]3O[C@H](CO)[C@@H](O)[C@H](N)[C@H]3O)[C@H](N)C[C@@H]2N)[C@H](N)C[C@@H]1O [tobramycin]
Kd: 2320 ± 280 nM
